Here are results for 15 compounds from patent US10669272B2, “Substituted naphthyridinone compounds useful as T cell activators” (BRISTOL-MYERS SQUIBB COMPANY, priority 2018, dated 2020).

Where two headings read alike, the source gives them in different places.

One experiment concerns the target T1, human DGKζ (Homo sapiens, UniProt Q13574).
T1 construct: TVMV protease cleavage site (C); Hexa-His (C); made in house; host or cells: Sf9 insect cells (baculovirus, Bac-to-Bac)
Put plainly: DGKζ LIPGLO assay (extruded liposome substrate), in vitro DGK inhibition. Format: biochemical. The conditions noted are these: liposome (LIPGLO) assay; read-out: DGKz LIPGLO IC50.

The target in the next experiment is T2, human DGKα (Homo sapiens, UniProt P23743).
T2 construct: TVMV protease cleavage site (C); Hexa-His (C); made in house; host or cells: Sf9 insect cells (baculovirus, Bac-to-Bac)
As to the kind of experiment: DGKα LIPGLO assay (extruded liposome substrate), in vitro DGK inhibition. The class given is biochemical. The conditions noted are these: liposome (LIPGLO) assay; read-out: DGKa LIPGLO IC50.

In experiment [1] the test system is OT-1 CD8+ T cells with SIINFEKL-loaded MC38 tumor cells. As to the kind of experiment: Murine cytotoxic T lymphocyte assay (IFN-γ, OT-1 CTL with MC38 tumor cells). The class given is cell-based, mouse. The conditions noted are these: read-out: msCTL INFg IC50. Summed up:
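IFN-γ was quantified by AlphaLISA in supernatants after 24 h co-culture at 37° C. Effectors were OT-1 CD8+ CTLs (5-day peptide/mIL2 expansion), exposed 1 h to DGK inhibitors before mixing 1:10 with MC38 tumor cells loaded 3 h with 1 μg/mL SIINFEKL peptide.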

Another experiment has as its system naïve human CD8 T cells. Put plainly: Human CD8 T cells IFN-γ assay.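 Further: Naïve human CD8 T cells stimulated with plate-bound anti-CD3 and soluble anti-CD28, IFN-γ in supernatant quantified by AlphaLISA and converted to pg/mL.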 Format: cell-based. The conditions noted are these: normalized to 3 μM reference compound with anti-CD3 plus anti-CD28 as 100% activation, read-out: HuCD8 INFG Normalized EC50.
In another experiment the test system is Human venous whole blood. Put plainly: Human whole blood IFN-γ assay.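 Further: blood from healthy donors exposed to compound for 1 h before stimulation with anti-CD3 and anti-CD28 at 1 µg/mL each, IFN-γ quantified in supernatant by AlphaLISA.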 The class given is cell-based. The conditions noted are these: human whole blood, normalized to 3 μM reference compound with anti-CD3 plus anti-CD28 as 100% activation, read-out: INFg Whole Blood Normalized Agonist EC50.

T2 sequence (P23743 with tags, fused parts or gaps): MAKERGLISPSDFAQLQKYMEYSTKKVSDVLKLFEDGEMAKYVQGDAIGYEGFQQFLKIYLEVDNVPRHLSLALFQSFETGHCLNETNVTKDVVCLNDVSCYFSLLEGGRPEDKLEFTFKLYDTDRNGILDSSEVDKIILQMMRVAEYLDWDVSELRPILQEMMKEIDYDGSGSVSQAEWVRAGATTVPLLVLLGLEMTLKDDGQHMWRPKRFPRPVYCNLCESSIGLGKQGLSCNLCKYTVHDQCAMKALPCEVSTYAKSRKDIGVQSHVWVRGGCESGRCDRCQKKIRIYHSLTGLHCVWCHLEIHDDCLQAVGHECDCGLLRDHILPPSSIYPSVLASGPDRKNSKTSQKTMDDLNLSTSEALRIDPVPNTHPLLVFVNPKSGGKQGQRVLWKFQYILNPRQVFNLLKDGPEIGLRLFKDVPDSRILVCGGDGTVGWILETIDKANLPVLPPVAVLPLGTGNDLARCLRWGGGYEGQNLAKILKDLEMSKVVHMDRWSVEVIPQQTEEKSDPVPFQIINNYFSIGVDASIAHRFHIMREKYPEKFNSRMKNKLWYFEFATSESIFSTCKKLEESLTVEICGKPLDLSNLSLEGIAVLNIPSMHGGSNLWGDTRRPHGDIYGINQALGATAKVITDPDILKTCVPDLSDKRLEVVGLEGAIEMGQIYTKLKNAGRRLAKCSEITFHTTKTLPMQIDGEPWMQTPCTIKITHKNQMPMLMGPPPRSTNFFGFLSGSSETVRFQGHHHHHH
T1 sequence (Q13574 with tags, fused parts or gaps isoform Q13574-4): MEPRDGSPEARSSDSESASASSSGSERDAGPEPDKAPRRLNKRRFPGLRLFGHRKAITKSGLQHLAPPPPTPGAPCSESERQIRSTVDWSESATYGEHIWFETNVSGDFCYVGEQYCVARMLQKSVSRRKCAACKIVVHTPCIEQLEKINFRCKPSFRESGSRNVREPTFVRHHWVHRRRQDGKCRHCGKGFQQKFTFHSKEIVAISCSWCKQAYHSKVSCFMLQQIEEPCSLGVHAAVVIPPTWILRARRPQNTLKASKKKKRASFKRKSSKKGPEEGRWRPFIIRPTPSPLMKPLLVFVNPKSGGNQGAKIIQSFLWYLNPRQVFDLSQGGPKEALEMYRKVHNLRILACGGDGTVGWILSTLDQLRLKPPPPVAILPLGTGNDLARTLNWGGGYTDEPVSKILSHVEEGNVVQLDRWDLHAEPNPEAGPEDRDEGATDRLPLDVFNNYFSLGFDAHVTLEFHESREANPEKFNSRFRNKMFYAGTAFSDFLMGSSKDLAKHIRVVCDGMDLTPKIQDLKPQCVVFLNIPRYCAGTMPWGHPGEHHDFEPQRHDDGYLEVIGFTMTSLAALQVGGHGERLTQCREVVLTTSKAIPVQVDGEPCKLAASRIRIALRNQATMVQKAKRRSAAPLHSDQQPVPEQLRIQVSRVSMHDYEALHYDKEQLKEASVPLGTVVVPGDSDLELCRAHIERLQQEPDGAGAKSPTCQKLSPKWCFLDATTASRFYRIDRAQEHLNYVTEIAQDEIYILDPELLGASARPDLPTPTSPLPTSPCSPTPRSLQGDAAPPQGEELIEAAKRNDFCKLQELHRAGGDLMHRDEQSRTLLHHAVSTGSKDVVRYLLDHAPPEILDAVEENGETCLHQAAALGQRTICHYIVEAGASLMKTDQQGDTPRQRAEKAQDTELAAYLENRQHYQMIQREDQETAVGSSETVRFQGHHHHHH
Procedure for Human venous whole blood: Human Whole Blood IFN-γ Assay
Human venous whole blood (22.5 μL per well), obtained from healthy donors, was pre-treated with compounds for one hour at 37° C. in a humidified 95% air/5% CO2 incubator. The blood was stimulated with 2.5 μL anti-human CD3 and anti-CD28 mAb at a final concentration of 1 μg/mL each for 24 hours at 37° C. IFN-γ in the supernatants was measured using AlphLISA kit (Cat # AL217).

Consider `COc1cc(F)ccc1C(c1ccc(F)cc1)N1C[C@@H](C)N(c2c([N+](=O)[O-])c(=O)n(C)c3ccc(C#N)nc23)C[C@@H]1C` (stereo in doubt) [Example 120, 8-((2R,5S)-4-((4-fluoro-2-methoxyphenyl)(4-fluorophenyl)methyl)-2,5-dimethylpiperazin-1-yl)-5-methyl-7-nitro-6-oxo-5,6-dihydro-1,5-naphthyridine-2-carbonitrile], for which the IC50 on human DGKζ turned out to be 240000 nM; on human DGKα it was 110000 nM; in experiment [1] (Mus musculus, MC-38), 4700 nM. The EC50 in the experiment with naïve human CD8 T cells (Homo sapiens, T-cell, 20 h) was 1000 nM; in the experiment with Human venous whole blood (Homo sapiens, 24 h) it was 20000 nM.
Turning to `CC(c1ccc(F)cc1)N1C[C@H](C)N(c2cc(=O)n(C)c3ccc(C#N)nc23)C[C@H]1C` (single isomer, unassigned) [Example 308], the IC50 at human DGKζ came out at 160 nM; on human DGKα, 25 nM; in experiment [1] (Mus musculus, MC-38) it was 81 nM. Besides, the EC50 with naïve human CD8 T cells was found to be 290 nM; in the experiment on Human venous whole blood (Homo sapiens, 24 h) it was 520 nM.
Take `C[C@@H]1CN(C(c2ccc(F)cc2)c2ccc(F)cc2)[C@H](C)CN1c1c(Cl)c(=O)n(C)c2ccc(C#N)nc12` [Example 132, 8-((2R,5R)-4-(bis(4-fluorophenyl)methyl)-2,5-dimethylpiperazin-1-yl)-7-chloro-5-methyl-6-oxo-5,6-dihydro-1,5-naphthyridine-2-carbonitrile]: the IC50 at human DGKζ amounted to 2700 nM; at human DGKα, 51000 nM; in experiment [1] (Mus musculus, MC-38), 7100 nM. The EC50 in the experiment on naïve human CD8 T cells (Homo sapiens, T-cell, 20 h) is 2100 nM; in the experiment on Human venous whole blood (Homo sapiens, 24 h) it was 8300 nM.
Take `COC(=O)C1CN(C(c2ccc(F)cc2)c2ccc(F)cc2)CCN1c1c(C#N)c(=O)n(C)c2ccc(C#N)nc12` (single isomer, unassigned) [Example 116, Methyl 4-(bis(4-fluorophenyl)methyl)-1-(3,6-dicyano-1-methyl-2-oxo-1,2-dihydro-1,5-naphthyridin-4-yl)piperazine-2-carboxylate]: the IC50 stood at 3600 nM at human DGKζ, 9500 nM at human DGKα and 560 nM in experiment [1]. In addition, the EC50 was 160 nM with naïve human CD8 T cells (Homo sapiens, T-cell, 20 h) and 3300 nM in the experiment on Human venous whole blood (Homo sapiens, 24 h).
Take `C[C@@H]1CN(c2cc(=O)n(C)c3ccc(C#N)nc23)[C@@H](C)CN1C(c1ccc(F)cc1)c1ccc(Cl)cc1` (single isomer, unassigned) [Example 302]: the values for the IC50 (at human DGKζ; at human DGKα; in experiment [1]) were 640 nM, 170 nM and 24 nM, respectively. Moreover, the EC50 with naïve human CD8 T cells is 23 nM; in the experiment with Human venous whole blood (Homo sapiens, 24 h) it was 570 nM.
With `C[C@@H]1CN(c2c(Cl)c(=O)n(C)c3ccc(C#N)nc23)[C@@H](C)CN1C(c1ccc(F)cc1)c1ccc(F)cc1` [Example 18, 8-((2S,5R)-4-(bis(4-fluorophenyl)methyl)-2,5-dimethylpiperazin-1-yl)-7-chloro-5-methyl-6-oxo-5,6-dihydro-1,5-naphthyridine-2-carbonitrile], the IC50 on human DGKζ came to 12000 nM; at human DGKα, 800 nM; in experiment [1] (Mus musculus, MC-38), 10000 nM. Also, the EC50 was found to be 250 nM in the experiment on naïve human CD8 T cells (Homo sapiens, T-cell, 20 h) and 20000 nM with Human venous whole blood (Homo sapiens, 24 h).
As to `Cn1c(=O)cc(N2CCN(C(c3ccc(F)cc3)c3ccc(F)cc3)C(C(=O)OC3CC3)C2)c2nc(C#N)ccc21` (single isomer, unassigned) [Example 106, cyclopropyl 1-(bis(4-fluorophenyl)methyl)-4-(6-cyano-1-methyl-2-oxo-1,2-dihydro-1,5-naphthyridin-4-yl)piperazine-2-carboxylate], the IC50 was 13000 nM at human DGKζ, 240000 nM at human DGKα and 2900 nM in experiment [1]. For the same compound, the EC50 in the experiment on naïve human CD8 T cells is 610 nM; in the experiment with Human venous whole blood (Homo sapiens, 24 h) it was 8500 nM.
With `Cc1ccc(C(c2ccc(Cl)cc2)N2C[C@H](C)N(c3cc(=O)n(C)c4ccc(C#N)nc34)C[C@H]2C)cc1` (single isomer, unassigned) [Example 250], the 50% inhibitory concentration (IC50) on human DGKζ was 630 nM; on human DGKα, 600 nM; in experiment [1], 190 nM. Besides, the EC50 in the experiment with naïve human CD8 T cells was found to be 120 nM; in the experiment on Human venous whole blood, 710 nM.
Consider `C[C@@H]1CN(c2cc(=O)n(C)c3ccc(C#N)nc23)[C@@H](C)CN1C(c1ccc(F)cc1)c1ccccn1` (single isomer, unassigned) [Example 197], for which the IC50 at human DGKζ amounted to 3700 nM; on human DGKα, 200 nM; in experiment [1] (Mus musculus, MC-38), 82 nM. Besides, the EC50 with naïve human CD8 T cells (Homo sapiens, T-cell, 20 h) came out at 35 nM; in the experiment on Human venous whole blood (Homo sapiens, 24 h), 1100 nM.
`C[C@@H]1CN(c2cc(=O)n(C)c3ccc(C#N)nc23)CCN1C(c1ccc(F)cc1)c1ccc(F)cc1` [Example 28, (R)-8-(4-(bis(4-fluorophenyl)methyl)-3-methylpiperazin-1-yl)-5-methyl-6-oxo-5,6-dihydro-1,5-naphthyridine-2-carbonitrile]: the IC50 at human DGKζ was found to be 2100 nM; on human DGKα, 4600 nM; in experiment [1] (Mus musculus, MC-38) it was 570 nM. Besides, the EC50 is 38 nM with naïve human CD8 T cells (Homo sapiens, T-cell, 20 h) and 5300 nM with Human venous whole blood (Homo sapiens, 24 h).
On to `C[C@H]1CN(c2cc(=O)n(C)c3ccc(C#N)nc23)CCN1C(c1ccc(F)cc1)c1ccc(F)cc1` [Example 35, (S)-8-(4-(bis(4-fluorophenyl)methyl)-3-methylpiperazin-1-yl)-5-methyl-6-oxo-5,6-dihydro-1,5-naphthyridine-2-carbonitrile], for which the IC50 at human DGKζ was found to be 770 nM; on human DGKα it was 21000 nM; in experiment [1] (Mus musculus, MC-38) it was 1100 nM. In addition, the EC50 in the experiment on naïve human CD8 T cells (Homo sapiens, T-cell, 20 h) is 61 nM; with Human venous whole blood (Homo sapiens, 24 h), 2200 nM.
Turning to `Cn1c(=O)cc(N2CCN(C(c3ccc(F)cc3)c3ccc(F)cc3)C(C#N)C2)c2nc(C#N)ccc21` (single isomer, unassigned) [Example 45, 8-(4-(bis(4-fluorophenyl)methyl)-3-cyanopiperazin-1-yl)-5-methyl-6-oxo-5,6-dihydro-1,5-naphthyridine-2-carbonitrile], the figures for the IC50 (on human DGKζ; at human DGKα; in experiment [1]) were 2400 nM, 7200 nM and 910 nM, respectively. For the same compound, the EC50 in the experiment on naïve human CD8 T cells was 530 nM; in the experiment on Human venous whole blood, 2300 nM.
`C[C@@H]1CN(c2c(C#N)c(=O)n(C)c3ccc(C#N)nc23)CCN1C(c1ccc(F)cc1)c1ccc(F)cc1` [Example 32, (R)-8-(4-(bis(4-fluorophenyl)methyl)-3-methylpiperazin-1-yl)-5-methyl-6-oxo-5,6-dihydro-1,5-naphthyridine-2,7-dicarbonitrile]: the half-maximal inhibitory concentration (IC50) on human DGKζ was found to be 850 nM; on human DGKα, 980 nM; in experiment [1] (Mus musculus, MC-38) it was 43 nM. The EC50 in the experiment on naïve human CD8 T cells (Homo sapiens, T-cell, 20 h) is 17 nM; in the experiment on Human venous whole blood (Homo sapiens) it was 400 nM.
In the case of `CC(C)[C@@H]1CN(c2cc(=O)n(C)c3ccc(C#N)nc23)CCN1C(c1ccc(F)cc1)c1ccc(F)cc1` [Example 168, (R)-8-(4-(bis(4-fluorophenyl)methyl)-3-isopropylpiperazin-1-yl)-5-methyl-6-oxo-5,6-dihydro-1,5-naphthyridine-2-carbonitrile], the IC50 at human DGKζ turned out to be 240000 nM; on human DGKα it was 7500 nM; in experiment [1] (Mus musculus, MC-38), 510 nM. Moreover, the EC50 in the experiment with naïve human CD8 T cells (Homo sapiens, T-cell, 20 h) is 10000 nM; in the experiment on Human venous whole blood (Homo sapiens, 24 h), 10000 nM.
Consider `CC(C)[C@@H]1CN(c2c(C#N)c(=O)n(C)c3ccc(C#N)nc23)CCN1C(c1ccc(F)cc1)c1ccc(F)cc1` [Example 169, (R)-8-(4-(bis(4-fluorophenyl)methyl)-3-isopropylpiperazin-1-yl)-5-methyl-6-oxo-5,6-dihydro-1,5-naphthyridine-2,7-dicarbonitrile], for which the IC50 turned out to be 77000 nM on human DGKζ; 3200 nM on human DGKα; 2600 nM in experiment [1] (Mus musculus, MC-38). Further, the EC50 in the experiment with naïve human CD8 T cells (Homo sapiens, T-cell, 20 h) is 440 nM; in the experiment on Human venous whole blood (Homo sapiens, 24 h), 13000 nM.
